Test results as given in patent publication US5698411A, “Method for determining activity of enzymes in metabolically active whole cells” (priority 1995, dated 1997).

Experiments:
Type in all cases: cell-based, human
monocytes = test: aberrant enzyme activities in febrile children, monocytes (Table 7)
lymphocytes [1] = test: aberrant enzyme activities in febrile children, lymphocytes (Table 7)
lymphocytes [2] = test: peptidase activity in leukemia and non-leukemia patients, lymphocytes (Table 6C); set-up: unit not given here
From the text: (§1) Artificial intelligence was used to analyze data of cellular enzyme functions, and determine normal and disease states. Peptidases were used to distinguish leukemia from non-leukemia (output pattern). For input patterns lymphocyte and granulocyte cell types were used with aminopeptidases, cathepsins and dipeptidylpeptidase enzyme activities. In this Example, illustrated in Tables 6A-6C, three normals and three leukemia patients were used as known output patterns for the neural network to learn (in practice, the larger the learning set the more accurate unknown prediction will be). Unknowns were then presented to the learned algorithm as shown in the test case examples. Clinical diagnosis was confirmed by physicians. The trained neural network was able to correctly classify the leukemia from the non-leukemia.

granulocytes [3] = test: peptidase activity in leukemia and non-leukemia patients, granulocytes (Table 6C); set-up: unit not given here
From the text: as §1

granulocytes [4] = test: aberrant enzyme activities in febrile children, granulocytes (Table 7)
[5] = system: metabolically active whole cell; test: substrate panel in normals and HIV + patients, TB infection (Table 4); set-up: unit not given here
Protocol: A panel of assay compounds are assembled consisting of Ala-aminopeptidase and Lys-aminopeptidase, Dipeptidyl peptidase IV (Ala-Ala)2 rhodamine 110 and Cathepsin D to indicate possible TB infection in AIDS related cases.
A panel Of enzymatic substrates is performed consisting of Ala-aminopeptidase and Lys-aminopeptidase, Dipeptidyl peptidase IV (Ala-Ala)2 rhodamine 110 and Cathepsin D to indicate possible TB infection in AIDS related cases.

lymphocytes [6] = test: enzyme activity with fluorogenic substrate, normal lymphocytes (Table 3A)

C[C@H](N)C(=O)Nc1ccc2c(c1)Oc1cc(NC(=O)[C@H](C)N)ccc1C21OC(=O)c2ccccc21 [ALA, (Ala)2 Rho 110]
aberrant enzyme activity, MONOS (monocytes; P88 Enteritis): .smallcircle.
aberrant enzyme activity, MONOS (monocytes; P89 Viral Stomatitis): .smallcircle.
aberrant enzyme activity, MONOS (monocytes; P92 Adenitis): + (>0.25 Increase over normal range)
aberrant enzyme activity, MONOS (monocytes; P97 Pyelonephritis): + (>0.25 Increase over normal range)
aberrant enzyme activity, MONOS (monocytes; P102 UTI): + (>0.25 Increase over normal range)
aberrant enzyme activity, MONOS (monocytes; P103 Viral Syndrome): .smallcircle.
aberrant enzyme activity, LYMPHS (lymphocytes [1]; P88 Enteritis): .smallcircle.
aberrant enzyme activity, LYMPHS (lymphocytes [1]; P89 Viral Stomatitis): .smallcircle.
aberrant enzyme activity, LYMPHS (lymphocytes [1]; P92 Adenitis): .smallcircle.
aberrant enzyme activity, LYMPHS (lymphocytes [1]; P97 Pyelonephritis): .smallcircle.
aberrant enzyme activity, LYMPHS (lymphocytes [1]; P102 UTI): .smallcircle.
aberrant enzyme activity, LYMPHS (lymphocytes [1]; P103 Viral Syndrome): .smallcircle.
enzyme activity, Lymphs (lymphocytes [2]; J4 11/21/91 acute leuk.): 86.00
enzyme activity, Lymphs (lymphocytes [2]; J4 12/2/91 A L): 68.10
enzyme activity, Lymphs (lymphocytes [2]; J4 12/3/91 acute leuk.): 74.64
enzyme activity, Lymphs (lymphocytes [2]; J5 11/27/91 A M L): 92.44
enzyme activity, Lymphs (lymphocytes [2]; J19 11/27/91 C L L): 47.78
enzyme activity, Lymphs (lymphocytes [2]; J22 12/2/91 A M L): 84.42
enzyme activity, Lymphs (lymphocytes [2]; J22 12/9/91 A M L): 83.48
enzyme activity, Lymphs (lymphocytes [2]; N191 normal): 95.72
enzyme activity, Lymphs (lymphocytes [2]; N192 normal): 103.31
enzyme activity, Lymphs (lymphocytes [2]; N193 normal): 100.50
enzyme activity, Lymphs (lymphocytes [2]; N194 normal): 97.02
enzyme activity, Lymphs (lymphocytes [2]; N195 normal): 118.81
enzyme activity, Lymphs (lymphocytes [2]; N197 normal): 96.36
enzyme activity, Lymphs (lymphocytes [2]; N199 normal): 91.07
enzyme activity, Lymphs (lymphocytes [2]; N200 normal): 101.38
enzyme activity, Lymphs (lymphocytes [2]; N201 normal): 106.72
enzyme activity, Lymphs (lymphocytes [2]; N202 normal): 118.37
enzyme activity, Lymphs (lymphocytes [2]; N206 normal): 122.71
enzyme activity, Lymphs (lymphocytes [2]; P68 tachycardia): 1471.10
enzyme activity, Lymphs (lymphocytes [2]; P69 pancreatic CA): 130.34
enzyme activity, Lymphs (lymphocytes [2]; P70 cirrhosis/hemobilia): 141.87
enzyme activity, Lymphs (lymphocytes [2]; P71 ac. pyelonephritis): 109.26
enzyme activity, Grans (granulocytes [3]; J4 11/21/91 acute leuk.): 193.43
enzyme activity, Grans (granulocytes [3]; J4 12/2/91 A L): 139.53
enzyme activity, Grans (granulocytes [3]; J4 12/3/91 acute leuk.): 138.89
enzyme activity, Grans (granulocytes [3]; J5 11/27/91 A M L): 194.85
enzyme activity, Grans (granulocytes [3]; J19 11/27/91 C L L): 143.11
enzyme activity, Grans (granulocytes [3]; J22 12/2/91 A M L): 157.12
enzyme activity, Grans (granulocytes [3]; J22 12/9/91 A M L): 157.48
enzyme activity, Grans (granulocytes [3]; N191 normal): 177.32
enzyme activity, Grans (granulocytes [3]; N192 normal): 154.84
enzyme activity, Grans (granulocytes [3]; N193 normal): 178.64
enzyme activity, Grans (granulocytes [3]; N194 normal): 164.00
enzyme activity, Grans (granulocytes [3]; N195 normal): 221.28
enzyme activity, Grans (granulocytes [3]; N197 normal): 188.20
enzyme activity, Grans (granulocytes [3]; N199 normal): 157.30
enzyme activity, Grans (granulocytes [3]; N200 normal): 171.06
enzyme activity, Grans (granulocytes [3]; N201 normal): 206.06
enzyme activity, Grans (granulocytes [3]; N202 normal): 201.17
enzyme activity, Grans (granulocytes [3]; N206 normal): 232.57
enzyme activity, Grans (granulocytes [3]; P68 tachycardia): 276.07
enzyme activity, Grans (granulocytes [3]; P69 pancreatic CA): 204.02
enzyme activity, Grans (granulocytes [3]; P70 cirrhosis/hemobilia): 236.23
enzyme activity, Grans (granulocytes [3]; P71 ac. pyelonephritis): 185.37
aberrant enzyme activity, GRANS (granulocytes [4]; P88 Enteritis): .smallcircle.
aberrant enzyme activity, GRANS (granulocytes [4]; P89 Viral Stomatitis): .smallcircle.
aberrant enzyme activity, GRANS (granulocytes [4]; P92 Adenitis): + (>0.25 Increase over normal range)
aberrant enzyme activity, GRANS (granulocytes [4]; P97 Pyelonephritis): + (>0.25 Increase over normal range)
aberrant enzyme activity, GRANS (granulocytes [4]; P102 UTI): .smallcircle.
aberrant enzyme activity, GRANS (granulocytes [4]; P103 Viral Syndrome): .smallcircle.
MEAN DELTA FL ([5]; HIV + PATIENTS): 59.0
MEAN DELTA FL ([5]; NORMALS): 132.0

O=C1OC2(c3ccc(OP(=O)(O)O)cc3Oc3cc(OP(=O)(O)O)ccc32)c2ccccc21 [DPO4, (PO4)2 fluorescein]
aberrant enzyme activity, MONOS (monocytes; P88 Enteritis): .smallcircle.
aberrant enzyme activity, MONOS (monocytes; P89 Viral Stomatitis): + (>0.25 Increase over normal range)
aberrant enzyme activity, MONOS (monocytes; P92 Adenitis): + (>0.25 Increase over normal range)
aberrant enzyme activity, MONOS (monocytes; P95 Viral Syndrome): + (>0.25 Increase over normal range)
aberrant enzyme activity, MONOS (monocytes; P97 Pyelonephritis): .smallcircle.
aberrant enzyme activity, MONOS (monocytes; P99 Viral Syndrome): .smallcircle.
aberrant enzyme activity, MONOS (monocytes; P101 Fever -- Unknown Origin): + (>0.25 Increase over normal range)
aberrant enzyme activity, MONOS (monocytes; P102 UTI): .smallcircle.
aberrant enzyme activity, MONOS (monocytes; P103 Viral Syndrome): + (>0.25 Increase over normal range)
aberrant enzyme activity, LYMPHS (lymphocytes [1]; P88 Enteritis): .smallcircle.
aberrant enzyme activity, LYMPHS (lymphocytes [1]; P89 Viral Stomatitis): .smallcircle.
aberrant enzyme activity, LYMPHS (lymphocytes [1]; P92 Adenitis): .smallcircle.
aberrant enzyme activity, LYMPHS (lymphocytes [1]; P95 Viral Syndrome): .smallcircle.
aberrant enzyme activity, LYMPHS (lymphocytes [1]; P96 Viral Syndrome): - (>0.25 Decrease over normal range)
aberrant enzyme activity, LYMPHS (lymphocytes [1]; P97 Pyelonephritis): .smallcircle.
aberrant enzyme activity, LYMPHS (lymphocytes [1]; P99 Viral Syndrome): .smallcircle.
aberrant enzyme activity, LYMPHS (lymphocytes [1]; P101 Fever -- Unknown Origin): .smallcircle.
aberrant enzyme activity, LYMPHS (lymphocytes [1]; P102 UTI): .smallcircle.
aberrant enzyme activity, LYMPHS (lymphocytes [1]; P103 Viral Syndrome): .smallcircle.
NORMAL LEUKOCYTE ENZYME ACTIVITY LYMPHS Mean (lymphocytes [6]): 54.29
aberrant enzyme activity, GRANS (granulocytes [4]; P88 Enteritis): .smallcircle.
aberrant enzyme activity, GRANS (granulocytes [4]; P89 Viral Stomatitis): + (>0.25 Increase over normal range)
aberrant enzyme activity, GRANS (granulocytes [4]; P92 Adenitis): + (>0.25 Increase over normal range)
aberrant enzyme activity, GRANS (granulocytes [4]; P95 Viral Syndrome): .smallcircle.
aberrant enzyme activity, GRANS (granulocytes [4]; P96 Viral Syndrome): .smallcircle.
aberrant enzyme activity, GRANS (granulocytes [4]; P97 Pyelonephritis): .smallcircle.
aberrant enzyme activity, GRANS (granulocytes [4]; P99 Viral Syndrome): .smallcircle.
aberrant enzyme activity, GRANS (granulocytes [4]; P101 Fever -- Unknown Origin): + (>0.25 Increase over normal range)
aberrant enzyme activity, GRANS (granulocytes [4]; P102 UTI): .smallcircle.
aberrant enzyme activity, GRANS (granulocytes [4]; P103 Viral Syndrome): + (>0.25 Increase over normal range)

O=C1OC2(c3ccc(OC4O[C@H](CO)[C@H](O)[C@H](O)[C@H]4O)cc3Oc3cc(OC4O[C@H](CO)[C@H](O)[C@H](O)[C@H]4O)ccc32)c2ccccc21 (stereo partly drawn) [GALAC, (D-galactose)2 fluorescein]
aberrant enzyme activity, MONOS (monocytes; P88 Enteritis): .smallcircle.
aberrant enzyme activity, MONOS (monocytes; P89 Viral Stomatitis): .smallcircle.
aberrant enzyme activity, MONOS (monocytes; P92 Adenitis): .smallcircle.
aberrant enzyme activity, MONOS (monocytes; P97 Pyelonephritis): .smallcircle.
aberrant enzyme activity, MONOS (monocytes; P103 Viral Syndrome): .smallcircle.
aberrant enzyme activity, LYMPHS (lymphocytes [1]; P88 Enteritis): .smallcircle.
aberrant enzyme activity, LYMPHS (lymphocytes [1]; P89 Viral Stomatitis): .smallcircle.
aberrant enzyme activity, LYMPHS (lymphocytes [1]; P92 Adenitis): .smallcircle.
aberrant enzyme activity, LYMPHS (lymphocytes [1]; P97 Pyelonephritis): .smallcircle.
aberrant enzyme activity, LYMPHS (lymphocytes [1]; P103 Viral Syndrome): .smallcircle.
NORMAL LEUKOCYTE ENZYME ACTIVITY LYMPHS Mean (lymphocytes [6]): 0.38
aberrant enzyme activity, GRANS (granulocytes [4]; P88 Enteritis): .smallcircle.
aberrant enzyme activity, GRANS (granulocytes [4]; P89 Viral Stomatitis): .smallcircle.
aberrant enzyme activity, GRANS (granulocytes [4]; P92 Adenitis): .smallcircle.
aberrant enzyme activity, GRANS (granulocytes [4]; P97 Pyelonephritis): .smallcircle.
aberrant enzyme activity, GRANS (granulocytes [4]; P103 Viral Syndrome): .smallcircle.
